{"source": "patent US10786459B2", "about": "“Twin-screw dry granulation for producing solid formulations” (R. P. Scherer Technologies LLC, priority 2016, dated 2020)", "format_in_all_cases": "physicochemical", "key": {"[1]": {"experiment": "Thermogravimetric analysis (TGA) of OND", "description": "Thermogravimetric analysis (TGA) was used to determine weight loss of OND due to dehydration. A weighed sample of OND was heated from 25° C. to 300° C. at a rate of 20° C./min in a platinum pan under an inert nitrogen atmosphere purge flowing at a rate of 20 ml per minute. Heating caused loss of 2 moles of loosely bound water from each mole of OND dihydrate."}, "[2]": {"experiment": "Dynamic vapor sorption (DVS) of OND", "details": "25 °C", "description": "Dynamic vapor sorption (DVS) was then used to measure the weight loss of OND during an isotherm dehydration study. The DVS apparatus (Surface Measurement Systems, London, UK) was a commercially available water sorption apparatus, which allowed an OND sample to be weighed under defined temperature and humidity conditions. About 14 mg of OND was weighed onto an aluminum pan. The DVS apparatus was programmed to run from 0% to 90% relative humidity (RH) at increments of 10% RH and then again going from 90% back to 0% RH at decrements of 10% RH. The study was conducted at 25° C. and in triplicate. The accuracy of the DVS apparatus was ±1.0% for the RH and ±0.2° C. for the temperature."}, "[3]": {"experiment": "Hot-stage microscopy (HSM) of OND", "details": "heated 35 to 150 °C at 2 °C/min in silicone oil", "description": "Hot-stage microscopy (HSM) was used to capture images at different stages of OND transformation. A glass slide with a sample of a small amount of OND dispersed in silicone oil was inserted into a hot-stage system (FTIR 600, Linkam Scientific Instruments, Surrey, UK). The OND sample was examined while being heated from 35° C. to 150° C. at a constant rate of 2° C./min. A camera-mounted optical microscope (Cary 620 IR, Agilent Technologies, Santa Clara, Calif., USA) equipped with a hot-stage was used to capture images at different stages of the OND transformation."}, "[4]": {"experiment": "DSC/FTIR compatibility and crystallinity of OND (Example 3)", "details": "1:1 ratio", "source_text": "Differential scanning calorimetry (Diamond DSC, Perkin Elmer Life and Analytical Sciences, 710 Bridgeport Ave., Conn., USA) equipped with Pyris manager software (Shelton, Conn., USA) and Fourier transform infrared spectroscopy (FTIR, Agilent Technologies Cary 660, Santa Clara, Calif.) were used to study the compatibility of OND with various polymeric carriers in 1:1 ratio in a dry granulation process carried out in a twin-screw extruder to provide granules used to produce extended release tablets. Samples were prepared by hermetically sealing approximately 3-5 mg of pure OND or powder mixture in aluminum pans, which were then heated over a temperature range of 40-250° C. at a linear heating rate of 10° C./min under an inert nitrogen atmosphere. An FTIR bench equipped with a […]® attenuated total reflection (Pike Technologies, Madison, Wis.) was used to generate mid-infrared spectra in the range of 4000-650 cm-1, which was fitted with a single bounce diamond coated ZnSe internal reflection element. […] Thus, the crystalline structure of OND was preserved in the granules."}}, "note": "Where a name gives a salt, the structure may show the parent alone.", "data": [{"molecule": "Cc1nccn1CC1CCc2c(c3ccccc3n2C)C1=O", "note": "(stereo not drawn) [OND, Ondansetron HCl dihydrate]", "values": [{"measurement": "temperature range of dehydration event (TGA)", "setting": "[1]; TGA thermogram", "value": "60-105 °C"}, {"measurement": "weight lost (TGA)", "setting": "[1]; heated from 60-105 °C, 20 °C/min, nitrogen", "value": "about 10%"}, {"measurement": "weight gain (DVS)", "setting": "[2]; RH increased beyond 20% up to 90%", "value": 9.2, "unit": "%"}, {"measurement": "weight gain (DVS)", "setting": "[2]; RH increased from 0% to 10%", "value": 2.67, "unit": "%"}, {"measurement": "weight gain (DVS)", "setting": "[2]; RH increased to 20%", "value": 8.9, "unit": "%"}, {"measurement": "weight loss (DVS)", "setting": "[2]; at 0% RH", "value": 9.5, "unit": "%"}, {"measurement": "weight decrease (DVS)", "setting": "[2]; desorption, at 10% RH", "value": "up to 4.44%"}, {"measurement": "temperature at which crystals started dehydration (HSM)", "setting": "[3]", "value": 90, "unit": "°C"}, {"measurement": "compatibility of OND with polymeric carriers", "setting": "[4]", "value": "compatible"}]}]}
